Reference: patent US20050222200A1, “AMIDE DERIVATIVES AS ION CHANNEL LIGANDS AND PHARMACEUTICAL COMPOSITIONS AND METHODS OF USING THE SAME” (Renovis, Inc., priority 2003, published 2005)

biological target: T1, VR1 (Homo sapiens, UniProt Q8NER1); test: High throughput calcium imaging assay of VR1 antagonists (Fura2, Flex Station, 96 well); type: cell-based; conditions: Table 1 activity class; further: test concentration or dose not given here
T1 construct: expressed in transfected cells; host or cells: 293 cells ("293 neurons" [sic])
T1 sequence (Q8NER1 whole entry, species assumed): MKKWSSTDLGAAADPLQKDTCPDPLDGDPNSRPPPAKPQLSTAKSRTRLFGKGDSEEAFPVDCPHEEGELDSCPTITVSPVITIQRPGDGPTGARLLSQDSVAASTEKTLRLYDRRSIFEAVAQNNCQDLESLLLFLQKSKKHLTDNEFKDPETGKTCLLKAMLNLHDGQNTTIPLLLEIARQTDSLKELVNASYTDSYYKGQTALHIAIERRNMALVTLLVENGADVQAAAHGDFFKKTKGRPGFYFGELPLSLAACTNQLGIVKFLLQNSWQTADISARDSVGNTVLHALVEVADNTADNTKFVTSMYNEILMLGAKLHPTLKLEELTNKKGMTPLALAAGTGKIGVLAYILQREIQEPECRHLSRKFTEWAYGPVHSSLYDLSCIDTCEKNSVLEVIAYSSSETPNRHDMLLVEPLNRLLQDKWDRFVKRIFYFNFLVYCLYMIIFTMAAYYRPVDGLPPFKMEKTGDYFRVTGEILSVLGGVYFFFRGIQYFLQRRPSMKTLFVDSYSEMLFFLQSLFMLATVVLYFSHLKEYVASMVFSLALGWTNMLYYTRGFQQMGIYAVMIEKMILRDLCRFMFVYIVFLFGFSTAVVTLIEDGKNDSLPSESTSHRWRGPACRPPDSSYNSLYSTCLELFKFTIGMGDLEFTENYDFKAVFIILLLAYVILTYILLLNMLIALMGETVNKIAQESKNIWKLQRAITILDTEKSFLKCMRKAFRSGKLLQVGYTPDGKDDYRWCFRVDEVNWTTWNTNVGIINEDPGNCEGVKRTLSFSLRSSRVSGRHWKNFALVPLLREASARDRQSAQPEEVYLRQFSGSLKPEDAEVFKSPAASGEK

Compound	inhibition of calcium ion influx induced by capsaicin stimulation
COc1ccccc1NC(=O)c1ccc(/C=C/C(C)(C)C)cc1 [Compound 31]	+ (compound exhibited 0-25% inhibition of calcium ion influx induced by capsaicin stimulation)
COc1ccc(NC(=O)c2ccc(/C=C/C(C)(C)C)cc2)cn1 [Compound 75]	++ (compound exhibited 25-50% inhibition of calcium ion influx induced by capsaicin stimulation)
CCC/C=C/c1ccc(C(=O)NCCc2ccccc2Cl)cc1 [Compound 194]	+ (compound exhibited 0-25% inhibition of calcium ion influx induced by capsaicin stimulation)
Cc1cc(C)nc(NC(=O)c2ccc(/C=C/C(C)(C)C)cc2)c1 [Compound 48]	++ (compound exhibited 25-50% inhibition of calcium ion influx induced by capsaicin stimulation)
CCC/C=C/c1ccc(C(=O)NC(C)(C)c2ccccc2)cc1 [Compound 219]	+ (compound exhibited 0-25% inhibition of calcium ion influx induced by capsaicin stimulation)
CC(C)(C)/C=C/c1ccc(C(=O)NCc2cccs2)cc1 [Compound 29]	+ (compound exhibited 0-25% inhibition of calcium ion influx induced by capsaicin stimulation)
CC(C)(C)/C=C/c1ccc(C(=O)Nc2cccnc2)cc1 [Compound 53]	++++ (compound exhibited 75% or greater inhibition of calcium ion influx induced by capsaicin stimulation)
CC(C)/C=C/c1ccc(C(=O)NCc2ccccn2)cc1 [Compound 120]	+ (compound exhibited 0-25% inhibition of calcium ion influx induced by capsaicin stimulation)
CC(C)/C=C/c1ccc(C(=O)NCCc2ccccc2Cl)cc1 [Compound 98]	+ (compound exhibited 0-25% inhibition of calcium ion influx induced by capsaicin stimulation)
CC(C)(C)/C=C/c1ccc(C(=O)Nc2ccc3ncccc3c2)cc1 [Compound 78]	++++ (compound exhibited 75% or greater inhibition of calcium ion influx induced by capsaicin stimulation)
COc1ccc(CNC(=O)c2ccc(/C=C/C(C)C)cc2)cc1OC [Compound 142]	+ (compound exhibited 0-25% inhibition of calcium ion influx induced by capsaicin stimulation)
CN(C)c1cccc(NC(=O)c2ccc(/C=C/C(C)(C)C)cc2)c1 [Compound 61]	++++ (compound exhibited 75% or greater inhibition of calcium ion influx induced by capsaicin stimulation)
CC(C)(C)/C=C/c1ccc(C(=O)NCc2ccccc2)cc1 [Compound 13]	+ (compound exhibited 0-25% inhibition of calcium ion influx induced by capsaicin stimulation)
CC(C)/C=C/c1ccc(C(=O)NC(c2ccccc2)c2ccccc2)cc1 [Compound 95]	++ (compound exhibited 25-50% inhibition of calcium ion influx induced by capsaicin stimulation)
CCCNC(=O)c1ccc(/C=C/C(C)(C)C)cc1 [Compound 14]	+ (compound exhibited 0-25% inhibition of calcium ion influx induced by capsaicin stimulation)
CCC/C=C/c1ccc(C(=O)NCCC)cc1 [Compound 198]	++ (compound exhibited 25-50% inhibition of calcium ion influx induced by capsaicin stimulation)
COc1ccccc1NC(=O)c1ccc(/C=C/C(C)C)cc1 [Compound 132]	+ (compound exhibited 0-25% inhibition of calcium ion influx induced by capsaicin stimulation)

Compound	inhibition of calcium ion influx induced by capsaicin stimulation
CC(C)(C)/C=C/c1ccc(C(=O)Nc2ccc(C(F)(F)F)cn2)cc1 [Compound 70]	+ (compound exhibited 0-25% inhibition of calcium ion influx induced by capsaicin stimulation)
CCNC(=O)c1ccc(/C=C/C(C)C)cc1 [Compound 126]	++ (compound exhibited 25-50% inhibition of calcium ion influx induced by capsaicin stimulation)
CCN(CC)c1ccc(NC(=O)c2ccc(/C=C/C(C)C)cc2)cc1 [Compound 130]	+++ (compound exhibited 50-75% inhibition of calcium ion influx induced by capsaicin stimulation)
CC(C)/C=C/c1ccc(C(=O)NCC2CCCO2)cc1 (stereo not drawn) [Compound 109]	++ (compound exhibited 25-50% inhibition of calcium ion influx induced by capsaicin stimulation)
CCC/C=C/c1ccc(C(=O)NCc2ccc3c(c2)OCO3)cc1 [Compound 208]	+ (compound exhibited 0-25% inhibition of calcium ion influx induced by capsaicin stimulation)
CCC/C=C/c1ccc(C(=O)NCC)cc1 [Compound 223]	+++ (compound exhibited 50-75% inhibition of calcium ion influx induced by capsaicin stimulation)
CC(C)/C=C/c1ccc(C(=O)NCCc2c[nH]c3ccccc23)cc1 [Compound 123]	+ (compound exhibited 0-25% inhibition of calcium ion influx induced by capsaicin stimulation)
CC(C)/C=C/c1ccc(C(=O)Nc2ccc3c(c2)Cc2ccccc2-3)cc1 [Compound 175]	+ (compound exhibited 0-25% inhibition of calcium ion influx induced by capsaicin stimulation)
CC(C)/C=C/c1ccc(C(=O)NCc2ccncc2)cc1 [Compound 93]	+ (compound exhibited 0-25% inhibition of calcium ion influx induced by capsaicin stimulation)
CC(C)/C=C/c1ccc(C(=O)NCc2cccs2)cc1 [Compound 127]	++ (compound exhibited 25-50% inhibition of calcium ion influx induced by capsaicin stimulation)
CC(C)/C=C/c1ccc(C(=O)NCCN2CCNCC2)cc1 [Compound 125]	++++ (compound exhibited 75% or greater inhibition of calcium ion influx induced by capsaicin stimulation)
CCC/C=C/c1ccc(C(=O)NC(C)(C)CO)cc1 [Compound 218]	+ (compound exhibited 0-25% inhibition of calcium ion influx induced by capsaicin stimulation)
CCC/C=C/c1ccc(C(=O)NC2CCCCC2)cc1 [Compound 181]	+ (compound exhibited 0-25% inhibition of calcium ion influx induced by capsaicin stimulation)
CC(C)(C)/C=C/c1ccc(C(=O)Nc2ncc(C(F)(F)F)cc2Cl)cc1 [Compound 71]	+ (compound exhibited 0-25% inhibition of calcium ion influx induced by capsaicin stimulation)
COc1ccc(NC(=O)c2ccc(/C=C/C(C)C)cc2)cc1Cl [Compound 145]	+ (compound exhibited 0-25% inhibition of calcium ion influx induced by capsaicin stimulation)
CC(C)(C)/C=C/c1ccc(C(=O)Nc2ccc(C(C)(C)C)cc2)cc1 [Compound 40]	+++ (compound exhibited 50-75% inhibition of calcium ion influx induced by capsaicin stimulation)
